Laboratory results reported in the supplement of paper PMC10307832.

Tests used:
Test in all cases: relative viability (nuclei count vs DMSO), 5 days (fraction); higher = more cells survive
NCI-H1563 = tested on: NCI-H1563
Summary of the method: (§1)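 A single step with final 0.05% Triton X-100, 1% formaldehyde and 1 ug/ml Hoechst fixed the cells and stained nuclei 5 days after treatment. Lung cancer cell lines in 1536-well plates had been treated by pin tool the day after seeding with one drug alone or a fixed anchor-drug dose plus five library-drug doses (not always all listed) in √10 steps, and nuclei were counted on 4× images. Relative viability is the ratio of nuclei in treated wells to nuclei in vehicle wells, taken as the median of duplicate plates.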

NCI-H1623 = tested on: NCI-H1623
Summary of the method: as §1

NCI-H2342 = tested on: NCI-H2342
Summary of the method: as §1

NCI-H522 = tested on: NCI-H522
Summary of the method: as §1

SW 900 = tested on: SW 900
Summary of the method: as §1

Compound `O=C(O)CCCCC(CCSCc1ccccc1)SCc1ccccc1` (centres undefined) [CPI-613] + CCNC(=O)c1noc(-c2cc(C(C)C)c(O)cc2O)c1-c1ccc(CN2CCOCC2)cc1 [Luminespib] (partner 0.01 µM) has a relative viability (NCI-H1563; first compound 5 µM) of 0.491, a relative viability (NCI-H1563; first compound 15.81 µM) of 0.501 and a relative viability (NCI-H1563; first compound 50 µM) of 0.552. The relative viability (NCI-H1563; first compound 158.11 µM) was 0.357, the relative viability (NCI-H1563; first compound 500 µM) was 0.316 and the relative viability (NCI-H1623; first compound 5 µM) was 0.405. It also gave a relative viability (NCI-H1623; first compound 15.81 µM) of 0.436, a relative viability (NCI-H1623; first compound 50 µM) of 0.54 and a relative viability (NCI-H1623; first compound 158.11 µM) of 0.389. It also gave a relative viability (NCI-H1623; first compound 500 µM) of 0.447, a relative viability (NCI-H2342; first compound 5 µM) of 0.798 and a relative viability (NCI-H2342; first compound 15.81 µM) of 0.738. For the same compound, the relative viability (NCI-H2342; first compound 50 µM) was 0.543, the relative viability (NCI-H2342; first compound 158.11 µM) was 0.668 and the relative viability (NCI-H2342; first compound 500 µM) was 0.756. For the same compound, the relative viability (NCI-H522; first compound 5 µM) was 1.15, the relative viability (NCI-H522; first compound 15.81 µM) was 1.01 and the relative viability (NCI-H522; first compound 50 µM) was 1.19. The relative viability (NCI-H522; first compound 158.11 µM) was 0.974, the relative viability (NCI-H522; first compound 500 µM) was 1.16 and the relative viability (SW 900; first compound 5 µM) was 0.162. For the same compound, the relative viability (SW 900; first compound 15.81 µM) was 0.166, the relative viability (SW 900; first compound 50 µM) was 0.209 and the relative viability (SW 900; first compound 158.11 µM) was 0.17. The relative viability (SW 900; first compound 500 µM) was 0.0842.
`O=C(O)CCCCC(CCSCc1ccccc1)SCc1ccccc1` (centres undefined) [CPI-613] + Cc1nc(Nc2ncc(C(=O)Nc3c(C)cccc3Cl)s2)cc(N2CCN(CCO)CC2)n1 [Dasatinib] (partner 0.075 µM) was tested, and the relative viability (NCI-H1563; first compound 5 µM) was 0.455, the relative viability (NCI-H1563; first compound 15.81 µM) was 0.443 and the relative viability (NCI-H1563; first compound 50 µM) was 0.436. The relative viability (NCI-H1563; first compound 158.11 µM) was 0.461, the relative viability (NCI-H1563; first compound 500 µM) was 0.456 and the relative viability (NCI-H1623; first compound 5 µM) was 0.592. For the same compound, the relative viability (NCI-H1623; first compound 15.81 µM) was 0.566, the relative viability (NCI-H1623; first compound 50 µM) was 0.549 and the relative viability (NCI-H1623; first compound 158.11 µM) was 0.39. It also gave a relative viability (NCI-H1623; first compound 500 µM) of 0.569, a relative viability (NCI-H2342; first compound 5 µM) of 0.315 and a relative viability (NCI-H2342; first compound 15.81 µM) of 0.275. For the same compound, the relative viability (NCI-H2342; first compound 50 µM) was 0.315, the relative viability (NCI-H2342; first compound 158.11 µM) was 0.286 and the relative viability (NCI-H2342; first compound 500 µM) was 0.294. The relative viability (NCI-H522; first compound 5 µM) was 0.818, the relative viability (NCI-H522; first compound 15.81 µM) was 1.01 and the relative viability (NCI-H522; first compound 50 µM) was 0.922. It also gave a relative viability (NCI-H522; first compound 158.11 µM) of 0.84, a relative viability (NCI-H522; first compound 500 µM) of 0.494 and a relative viability (SW 900; first compound 5 µM) of 0.692. For the same compound, the relative viability (SW 900; first compound 15.81 µM) was 0.542, the relative viability (SW 900; first compound 50 µM) was 0.686 and the relative viability (SW 900; first compound 158.11 µM) was 0.262. It also gave a relative viability (SW 900; first compound 500 µM) of 0.121.
`O=c1[nH]c2ccccc2n1C1CCN(CCCC(c2ccc(F)cc2)c2ccc(F)cc2)CC1` [Pimozide] + CCNC(=O)c1noc(-c2cc(C(C)C)c(O)cc2O)c1-c1ccc(CN2CCOCC2)cc1 [Luminespib] (partner 0.01 µM) gave a relative viability (NCI-H1563; first compound 0.08 µM) of 0.511, a relative viability (NCI-H1563; first compound 0.253 µM) of 0.513 and a relative viability (NCI-H1563; first compound 0.8 µM) of 0.516. The relative viability (NCI-H1563; first compound 2.53 µM) was 0.549, the relative viability (NCI-H1563; first compound 8 µM) was 0.496 and the relative viability (NCI-H1623; first compound 0.253 µM) was 0.515. It also gave a relative viability (NCI-H1623; first compound 0.8 µM) of 0.487, a relative viability (NCI-H1623; first compound 2.53 µM) of 0.521 and a relative viability (NCI-H1623; first compound 8 µM) of 0.447. For the same compound, the relative viability (NCI-H2342; first compound 0.08 µM) was 0.616, the relative viability (NCI-H2342; first compound 0.253 µM) was 0.685 and the relative viability (NCI-H2342; first compound 0.8 µM) was 0.611. For the same compound, the relative viability (NCI-H2342; first compound 2.53 µM) was 0.739, the relative viability (NCI-H2342; first compound 8 µM) was 0.696 and the relative viability (NCI-H522; first compound 0.08 µM) was 1.01. It also gave a relative viability (NCI-H522; first compound 0.253 µM) of 1.08, a relative viability (NCI-H522; first compound 0.8 µM) of 1.21 and a relative viability (NCI-H522; first compound 2.53 µM) of 1.21. For the same compound, the relative viability (NCI-H522; first compound 8 µM) was 1.24, the relative viability (SW 900; first compound 0.08 µM) was 0.163 and the relative viability (SW 900; first compound 0.253 µM) was 0.157. The relative viability (SW 900; first compound 0.8 µM) was 0.18, the relative viability (SW 900; first compound 2.53 µM) was 0.192 and the relative viability (SW 900; first compound 8 µM) was 0.181.
